# Test results reported in ChEMBL document CHEMBL1136428, “Structure-activity relationships of novel anti-malarial agents. Part 6: N-(4-arylpropionylamino-3-benzoylphenyl)-[5-(4-nitrophenyl)-2-furyl]acrylic acid amides” (Bioorg Med Chem Lett, 2003).
# Tested on: Plasmodium falciparum
# Test: Anti-malarial activity against Plasmodium falciparum Dd2
# Format: functional, organism-based
row,SMILES,IC50 [nM]
1,O=C(/C=C/c1ccc(-c2ccc([N+](=O)[O-])cc2)o1)Nc1ccc(NC(=O)CCc2ccccc2C(F)(F)F)c(C(=O)c2ccccc2)c1,1100
2,O=C(/C=C/c1ccc(-c2ccc([N+](=O)[O-])cc2)o1)Nc1ccc(NC(=O)CCc2ccc([N+](=O)[O-])cc2)c(C(=O)c2ccccc2)c1,1400
3,CC(C)(C)OC(=O)NC(Cc1ccc(C(F)(F)F)cc1)C(=O)Nc1ccc(NC(=O)/C=C/c2ccc(-c3ccc([N+](=O)[O-])cc3)o2)cc1C(=O)c1ccccc1 (configuration not stated),3200
4,O=C(/C=C/c1ccc(-c2ccc([N+](=O)[O-])cc2)o1)Nc1ccc(NC(=O)CCc2cccc(C(F)(F)F)c2)c(C(=O)c2ccccc2)c1,630
5,CC(C)(C)OC(=O)N[C@@H](Cc1ccccc1)C(=O)Nc1ccc(NC(=O)/C=C/c2ccc(-c3ccc([N+](=O)[O-])cc3)o2)cc1C(=O)c1ccccc1,420
6,O=C(/C=C/c1ccc(-c2ccc([N+](=O)[O-])cc2)o1)Nc1ccc(NC(=O)CCc2ccc(Br)cc2)c(C(=O)c2ccccc2)c1,170
7,N[C@@H](Cc1ccccc1)C(=O)Nc1ccc(NC(=O)/C=C/c2ccc(-c3ccc([N+](=O)[O-])cc3)o2)cc1C(=O)c1ccccc1,580
8,O=C(/C=C/c1ccc(-c2ccc([N+](=O)[O-])cc2)o1)Nc1ccc(NC(=O)CCc2ccc(O)cc2)c(C(=O)c2ccccc2)c1,3300
9,O=C(/C=C/c1ccc(-c2ccc([N+](=O)[O-])cc2)o1)Nc1ccc(NC(=O)CCc2ccc(F)cc2)c(C(=O)c2ccccc2)c1,440
10,O=C(/C=C/c1ccc(-c2ccc([N+](=O)[O-])cc2)o1)Nc1ccc(NC(=O)CCc2ccc(Cl)cc2)c(C(=O)c2ccccc2)c1,130
11,NC(Cc1ccc(C(F)(F)F)cc1)C(=O)Nc1ccc(NC(=O)/C=C/c2ccc(-c3ccc([N+](=O)[O-])cc3)o2)cc1C(=O)c1ccccc1 (configuration not stated),710
12,COc1ccc(CCC(=O)Nc2ccc(NC(=O)/C=C/c3ccc(-c4ccc([N+](=O)[O-])cc4)o3)cc2C(=O)c2ccccc2)cc1,1300
13,O=C(/C=C/c1ccc(-c2ccc([N+](=O)[O-])cc2)o1)Nc1ccc(NC(=O)CCc2ccc(C(F)(F)F)cc2)c(C(=O)c2ccccc2)c1,61
14,CC(C)(C)OC(=O)N[C@H](Cc1ccccc1)C(=O)Nc1ccc(NC(=O)/C=C/c2ccc(-c3ccc([N+](=O)[O-])cc3)o2)cc1C(=O)c1ccccc1,900
15,N[C@H](Cc1ccccc1)C(=O)Nc1ccc(NC(=O)/C=C/c2ccc(-c3ccc([N+](=O)[O-])cc3)o2)cc1C(=O)c1ccccc1,1200
16,Cc1ccc(CCC(=O)Nc2ccc(NC(=O)/C=C/c3ccc(-c4ccc([N+](=O)[O-])cc4)o3)cc2C(=O)c2ccccc2)cc1,440
17,O=C(/C=C/c1ccc(-c2ccc([N+](=O)[O-])cc2)o1)Nc1ccc(NC(=O)CCc2ccccc2)c(C(=O)c2ccccc2)c1,310
